This is an account of results in article PMC11876601 (Molecular Systems Biology, 2025).

Read-outs that look alike come from different tables or passages of the source.

What all share (test): cells
Assay [1] relates to PaTu-8988-T. Further details: ATPlite luminescence viability of PDAC cell lines, 11-dose single-agent curves, 4-parameter fit. The note with it: Homo sapiens, PaTu 8988t, 72 h, read-out: EC50 [nM]. In short, it runs like this: (§1)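 Drug-combination screening used cells plated at 1000 to 5000 per well one day before treatment. Final DMSO was 0.2%. Each plate held untreated negative-control wells and 5 µM staurosporine positive-control wells.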

Assay [2] concerns HuP-T4. Further details: ATPlite luminescence viability of PDAC cell lines, 11-dose single-agent curves, 4-parameter fit. The settings on record: Homo sapiens, HuP-T4, 72 h, read-out: EC50 [nM]. In short, it runs like this: as §1
The subject of assay [3] is HPDE. Further details: ATPlite luminescence viability of PDAC cell lines, 11-dose single-agent curves, 4-parameter fit. The settings on record: HPDE, 72 h, read-out: EC50 [nM]. In short, it runs like this:
as §1

Assay [4] concerns BxPC-3. Also noted: ATPlite luminescence viability of PDAC cell lines, 11-dose single-agent curves, 4-parameter fit. The settings on record: Homo sapiens, BXPC-3, 72 h, read-out: EC50 [nM]. In short, it runs like this:
as §1

The test system of assay [5] is FAMPAC. Further details: ATPlite luminescence viability of PDAC cell lines, 11-dose single-agent curves, 4-parameter fit. The settings on record: 72 h, read-out: EC50 [nM]. The method in brief: as §1
The subject of assay [6] is PSN-1. Also noted: ATPlite luminescence viability of PDAC cell lines, 11-dose single-agent curves, 4-parameter fit. The settings on record: Homo sapiens, PSN1, 72 h, read-out: EC50 [nM]. In short, it runs like this: as §1
In assay [7] the test system is Suit2-07. Also noted: Viability of PDAC cell lines, ATPlite luminescence, 11-dose single-agent curve fit. The note with it: 72 h, read-out: EC50 [nM]. The method in brief: (§2)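 screening used cells plated at 1000 to 5000 per well one day before treatment. Final DMSO was 0.2%. Each plate held untreated negative-control wells and 5 µM staurosporine positive-control wells.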

The test system of assay [8] is PANC-1. Further details: Viability of PDAC cell lines, ATPlite luminescence, 11-dose single-agent curve fit. The settings on record: Homo sapiens, PANC-1, 72 h, read-out: EC50 [nM]. In short, it runs like this: as §2
Assay [9] deals with Colo-357. Further details: Viability of PDAC cell lines, ATPlite luminescence, 11-dose single-agent curve fit. The settings on record: Homo sapiens, COLO357, 72 h, read-out: EC50 [nM]. In short, it runs like this: as §2
In assay [10] the test system is AsPC-1. Further details: Viability of PDAC cell lines, ATPlite luminescence, 11-dose single-agent curve fit. The settings on record: Homo sapiens, ASPC1, 72 h, read-out: EC50 [nM]. The method in brief:
as §2

For assay [11], the system named is Capan-1. Further details: Viability of PDAC cell lines, ATPlite luminescence, 11-dose single-agent curve fit. The note with it: Homo sapiens, CAPAN-1, 72 h, read-out: EC50 [nM]. The method in brief: as §2
Assay [12] has as its system MiaPaCa-2. Further details: Viability of PDAC cell lines, ATPlite luminescence, 11-dose single-agent curve fit. The note with it: Homo sapiens, MIA PaCa-2, 72 h, read-out: EC50 [nM]. The method in brief:
as §2

In assay [13] the test system is Dan-G. Also noted: Viability of PDAC cell lines, ATPlite luminescence, 11-dose single-agent curve fit. The note with it: 72 h, read-out: EC50 [nM]. In short, it runs like this:
as §2

Assay [14] concerns HPDE. Further details: Viability of PDAC cell lines, ATPlite luminescence, 11-dose single-agent curve fit. The settings on record: HPDE, 72 h, read-out: EC50 [nM]. The method in brief: as §2
Assay [15] deals with Suit2-07. Also noted: ATPlite luminescence viability of PDAC cell lines, 11-dose single-agent curves, 4-parameter fit. The note with it: 72 h, read-out: EC50 [nM]. In short, it runs like this:
as §1

The test system of assay [16] is PANC-1. Further details: ATPlite luminescence viability of PDAC cell lines, 11-dose single-agent curves, 4-parameter fit. The settings on record: Homo sapiens, PANC-1, 72 h, read-out: EC50 [nM]. The method in brief: as §1
Assay [17] concerns AsPC-1. Also noted: ATPlite luminescence viability of PDAC cell lines, 11-dose single-agent curves, 4-parameter fit. The note with it: Homo sapiens, ASPC1, 72 h, read-out: EC50 [nM]. In short, it runs like this: as §1
The test system of assay [18] is Capan-1. Further details: ATPlite luminescence viability of PDAC cell lines, 11-dose single-agent curves, 4-parameter fit. The note with it: Homo sapiens, CAPAN-1, 72 h, read-out: EC50 [nM]. In short, it runs like this: as §1
Assay [19] concerns MiaPaCa-2. Also noted: ATPlite luminescence viability of PDAC cell lines, 11-dose single-agent curves, 4-parameter fit. The note with it: Homo sapiens, MIA PaCa-2, 72 h, read-out: EC50 [nM]. In short, it runs like this:
as §1

Assay [20] relates to Dan-G. Also noted: ATPlite luminescence viability of PDAC cell lines, 11-dose single-agent curves, 4-parameter fit. The note with it: 72 h, read-out: EC50 [nM]. The method in brief:
as §1

The subject of assay [21] is HuP-T4. Further details: Viability of PDAC cell lines, ATPlite luminescence, 11-dose single-agent curve fit. The settings on record: Homo sapiens, HuP-T4, 72 h, read-out: EC50 [nM]. In short, it runs like this:
as §2

Assay [22] has as its system Colo-357. Further details: ATPlite luminescence viability of PDAC cell lines, 11-dose single-agent curves, 4-parameter fit. The settings on record: Homo sapiens, COLO357, 72 h, read-out: EC50 [nM]. The method in brief:
as §1

Assay [23] has as its system FAMPAC. Further details: Viability of PDAC cell lines, ATPlite luminescence, 11-dose single-agent curve fit. The settings on record: 72 h, read-out: EC50 [nM]. In short, it runs like this: as §2
Assay [24] relates to PSN-1. Also noted: Viability of PDAC cell lines, ATPlite luminescence, 11-dose single-agent curve fit. The note with it: Homo sapiens, PSN1, 72 h, read-out: EC50 [nM]. In short, it runs like this:
as §2

With `CN(C)C[C@@H]1CCn2cc(c3ccccc32)C2=C(C(=O)NC2=O)c2cn(c3ccccc23)CCO1` [Ruboxistaurin], the EC50 in [1], in assay [2], in [3], in assay [4], in [5] and in assay [6] was more than 10000 nM in each case. Also, the EC50 in assay [7] turned out to be 3050 nM; in assay [8] it was 1620 nM; in assay [9], 5.38 nM; in [10] it was 8110 nM; in [11] it was 8680 nM; in [12] it was 6440 nM. The EC50 in assay [13] is 5180 nM.

As for `CO[C@@H]1[C@H](N(C)C(=O)c2ccccc2)C[C@H]2O[C@]1(C)n1c3ccccc3c3c4c(c5c6ccccc6n2c5c31)C(=O)NC4` [Midostaurin], the EC50 in assay [1] stood at 385 nM; in assay [2] it was 692 nM; in [14], 221 nM.

For `CNC(=O)c1cc(Oc2ccc(NC(=O)Nc3ccc(Cl)c(C(F)(F)F)c3)c(F)c2)ccn1` [Regorafenib], the EC50 is more than 10000 nM in assay [15]; more than 10000 nM in assay [16]; more than 10000 nM in assay [1]; 2150 nM in [17]; 6350 nM in [18]; 9210 nM in assay [3]. The EC50 in assay [4] was 7410 nM; in assay [5], more than 10000 nM; in [6] it was 1430 nM; in assay [19], 4480 nM; in assay [20], 4480 nM; in assay [21], more than 10000 nM. Besides, in [9], the concentration for a half-maximal effect (EC50) came to 7480 nM.

As to `COc1cc2c(Oc3ccc4[nH]c(C)cc4c3F)ccnc2cc1OCC1(N)CC1` [Anlotinib], the EC50 stood at 1270 nM in assay [15]; 1960 nM in assay [16]; 1520 nM in [1]; 2350 nM in assay [22]; 3160 nM in assay [17]; 2440 nM in assay [18]. In addition, the EC50 in assay [3] was 6100 nM; in [4] it was 1520 nM; in assay [5], 1580 nM; in [6], 1920 nM; in [19], 1720 nM; in assay [20], 1850 nM. Also, the EC50 in [21] was more than 10000 nM.

`CN1CCC(COc2cnc(-c3cccc(Cn4nc(-c5cccc(C#N)c5)ccc4=O)c3)nc2)CC1` [Tepotinib]: the EC50 in assay [15] is 7810 nM; in assay [16], 3.11 nM; in assay [1], 6390 nM; in [22] it was 11.5 nM; in assay [17], more than 10000 nM; in [18], 23.4 nM. Also, the EC50 in assay [4] was 10300 nM; in [5] it was more than 10000 nM; in [6] it was 4160 nM; in assay [19] it was 7010 nM; in [20], 8.91 nM; in [21] it was 268 nM. The EC50 in assay [14] stood at 7650 nM.

As for `O=C1NC(=O)[C@@H](c2cn3c4c(cccc24)CCC3)[C@@H]1c1c[nH]c2ccccc12` [Tivantinib], the EC50 in assay [15] was 191 nM; in [16], 389 nM; in assay [1] it was 347 nM; in [22], 536 nM; in [17], 346 nM; in [18], 603 nM. For the same compound, the EC50 in assay [5] is 317 nM; in assay [6] it was 215 nM; in assay [19], 313 nM; in assay [20], 412 nM; in assay [21], more than 10000 nM; in [14], 143 nM.

On to `Cc1nc(-c2cn3c(n2)-c2ccc(-c4cnn(C(C)(C)C(N)=O)c4)cc2OCC3)n(C(C)C)n1` [Taselisib], for which the EC50 in assay [15] came to 141 nM; in [16], 1570 nM; in assay [1], 459 nM; in assay [22] it was 27.1 nM; in assay [17], 873 nM; in assay [18] it was 2920 nM. For the same compound, the EC50 in [3] is 826 nM; in assay [4], 245 nM; in assay [19], 446 nM; in assay [20], 37.1 nM; in assay [21], 19.8 nM; in assay [23], more than 10000 nM. For the same compound, in assay [24], the EC50 was determined as 7930 nM.

On to `COc1cc2c(Oc3ccc4[nH]c(C)cc4c3F)ncnc2cc1OCCCN1CCCC1` [Cediranib], for which the EC50 was more than 10000 nM in assay [15]; 6380 nM in assay [1]; 8450 nM in assay [2]; 10300 nM in assay [22]; 7780 nM in [17]; 7970 nM in assay [4]. Besides, the EC50 in assay [5] was more than 10000 nM; in assay [6], more than 10000 nM; in assay [19], 10100 nM; in assay [20], 6330 nM; in [8] it was 7310 nM; in assay [11] it was 8290 nM. For the same compound, the EC50 in assay [14] is 4910 nM.

In the case of `CC1(C)CC=C(c2nc(C3CC(C)(C)OC(C)(C)C3)ccc2NC(=O)c2nc(C#N)c[nH]2)CC1` [Edicotinib], the EC50 came to 2380 nM in [15]; 3070 nM in [16]; 2070 nM in assay [1]; 4490 nM in [22]; 2570 nM in assay [17]; 3970 nM in assay [18]. Also, the EC50 is 2070 nM in [3]; 1960 nM in assay [4]; 2850 nM in assay [5]; 2160 nM in assay [6]; 3040 nM in assay [19]; 3250 nM in assay [20]. The 50% effective concentration (EC50) in assay [21] was 1370 nM.

As to `COc1cc(OC)c(/C=C/S(=O)(=O)Cc2ccc(OC)c(NCC(=O)O)c2)c(OC)c1` [Rigosertib], the EC50 in assay [15] is 2170 nM; in [16] it was 313 nM; in [1], 607 nM; in assay [22], 256 nM; in assay [17] it was 863 nM; in assay [18], 178 nM. The EC50 was determined as 63.2 nM in assay [4]; 28.2 nM in [5]; 86.5 nM in assay [6]; 324 nM in assay [19]; 66 nM in assay [20]; 809 nM in [21]. In assay [14], the EC50 is 48.2 nM.

Turning to `C[C@@H](Oc1cc(-c2cnn(C3CCNCC3)c2)cnc1N)c1c(Cl)ccc(F)c1Cl` [Crizotinib], the EC50 in assay [15] was 2260 nM; in [16], more than 10000 nM; in [1], more than 10000 nM; in assay [22], 3820 nM; in assay [17], 7880 nM; in assay [3], 8110 nM. The concentration giving a half-maximal response (EC50) was more than 10000 nM in assay [4]; 5990 nM in [5]; 10200 nM in [6]; 840 nM in assay [19]; 2500 nM in [20]; 2760 nM in assay [21]. Moreover, in assay [11], the EC50 was found to be 1780 nM.
